Measurements taken from patent US20240239861A1, “GLUCAGON-RECEPTOR SELECTIVE POLYPEPTIDES AND METHODS OF USE THEREOF” (i2O Therapeutics, Inc., priority 2016, published 2024).
Like-named read-outs stand apart in the source and are kept apart here. Where a SMILES comes first, the peptide text is derived from it. [ ]: non-standard residue; d: D form. Aib = CC(C)(N)C(=O)O

Tests used:
human GLP-1R = human GLP-1R (Homo sapiens, UniProt P43220); assay: Peptide-receptor mediated cAMP accumulation (LANCE Ultra cAMP) in CHO-K1 cells transfected with human GLP-1R; assay type: cell-based
Chain of human GLP-1R (P43220 24-463): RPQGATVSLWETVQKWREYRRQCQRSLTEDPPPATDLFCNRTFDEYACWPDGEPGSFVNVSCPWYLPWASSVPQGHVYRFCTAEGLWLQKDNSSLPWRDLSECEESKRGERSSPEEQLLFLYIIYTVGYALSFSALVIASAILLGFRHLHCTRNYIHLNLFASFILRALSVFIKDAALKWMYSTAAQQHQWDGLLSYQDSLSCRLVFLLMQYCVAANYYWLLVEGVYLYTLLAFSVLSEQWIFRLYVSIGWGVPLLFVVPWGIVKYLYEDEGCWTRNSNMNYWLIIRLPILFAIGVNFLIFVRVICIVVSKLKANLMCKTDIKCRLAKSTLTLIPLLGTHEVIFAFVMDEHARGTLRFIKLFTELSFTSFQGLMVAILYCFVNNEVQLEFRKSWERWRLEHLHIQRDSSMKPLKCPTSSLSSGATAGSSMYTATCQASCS

[1] = Stability in water or saline at 37° C. and room temperature, 30 days, LC/MS and HPLC purity; assay type: physicochemical
Excerpt: Samples were withdrawn at a regular interval for 30 days and analyzed by LC/MS and HPLC for determination of purity and mass of the degradation product.

[2] = 3-hour intravenous infusion pharmacokinetics, peptide clearance (CL); conditions: male, rat, in vivo
human GCGR = human GCGR (Homo sapiens, UniProt P47871); assay: Peptide-receptor mediated cAMP accumulation (LANCE Ultra cAMP) in CHO-K1 cells transfected with human GCGR; assay type: cell-based; conditions: for hGCGR pEC50 (cAMP mean (n = 3): 11 point curve starting at 1 nM): Table 3
Chain of human GCGR (P47871 26-477): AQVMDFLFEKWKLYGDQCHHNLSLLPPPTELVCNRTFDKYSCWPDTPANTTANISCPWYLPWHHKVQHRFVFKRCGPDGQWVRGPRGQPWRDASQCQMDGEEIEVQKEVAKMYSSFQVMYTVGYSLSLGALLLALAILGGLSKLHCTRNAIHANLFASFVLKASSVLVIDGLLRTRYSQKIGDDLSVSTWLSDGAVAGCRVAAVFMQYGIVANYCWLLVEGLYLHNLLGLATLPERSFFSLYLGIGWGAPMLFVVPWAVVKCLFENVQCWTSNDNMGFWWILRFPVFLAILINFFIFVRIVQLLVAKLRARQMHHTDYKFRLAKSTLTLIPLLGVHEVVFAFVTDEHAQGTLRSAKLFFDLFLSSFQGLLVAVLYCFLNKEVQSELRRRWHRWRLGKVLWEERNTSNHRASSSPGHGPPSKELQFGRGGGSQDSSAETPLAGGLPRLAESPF

[3] = Solubility in water or saline at room temperature, visual inspection; assay type: physicochemical
Excerpt: Samples were visually inspected for clarity of the sample, any appearance of turbidity or haziness.

in vivo = conditions: male, rat
[4] = hGLP1 pEC50 (cAMP mean (n = 3): 11 point curve starting at 1 nM, Table 3)
[5] = hGLP1 pEC50 (cAMP) mean (n = 9): 11 point curve starting at 500 uM, Table 2A
[6] = hGLP1 pEC50 (cAMP) mean (n = 3): 11 point curve starting at 1 nM, Table 2B

Compound | CL (FIGURE 2B) [mL/min/kg] | EC50 (human GLP-1R; [4]) [nM] | EC50 (human GLP-1R; [5]) [nM] | Stability 1 mg/ml in water at 37 degC ([1]; Table 3, % printed only in cells of A1-A6) [%] | clearance [2] [mL/min/kg] | EC50 (human GCGR) [nM] | hGCGR pEC50 (cAMP mean (n = 3): 11 point curve starting at 1 nM) (human GCGR) | solubility ([3]; Table 3, room temperature, read-out: Solubility in water) [mg/mL] | clearance (in vivo) [mL/min/kg] | Stability 1 mg/ml in water at 37 degC [1] [%] | EC50 (human GCGR; Table 2A) [nM] | solubility ([3]; Solubility in water mg/ml) [mg/mL] | EC50 (human GLP-1R; [6]) [nM] | CL (FIGURE 2A) [mL/min/kg] | EC50 (human GCGR; Table 2B) [nM]
CC[C@H](C)[C@H](NC(=O)[C@@H](NC(=O)[C@H](Cc1ccccc1)NC(=O)[C@H](CCC(=O)O)NC(=O)[C@H](CCC(N)=O)NC(=O)[C@H](C)NC(=O)[C@H](CCCNC(=N)N)NC(=O)[C@H](CCCCN)NC(=O)C(C)(C)NC(=O)[C@H](CC(=O)O)NC(=O)[C@H](CC(C)C)NC(=O)[C@H](Cc1ccc(O)cc1)NC(=O)[C@H](CCCCN)NC(=O)[C@H](CO)NC(=O)[C@H](Cc1ccc(O)cc1)NC(=O)[C@H](CC(=O)O)NC(=O)[C@H](CO)NC(=O)[C@@H](NC(=O)[C@H](Cc1ccccc1)NC(=O)[C@@H](NC(=O)CNC(=O)[C@H](Cc1c[nH]cn1)NC(=O)[C@H](CO)NC(=O)[C@@H](N)Cc1ccc(O)cc1)[C@@H](C)O)[C@@H](C)O)C(C)C)C(=O)N[C@@H](Cc1c[nH]c2ccccc12)C(=O)N[C@@H](CC(C)C)C(=O)N[C@@H](CCC(=O)O)C(=O)N[C@@H](CC(=O)O)C(=O)N[C@@H](CCC(=O)O)C(=O)N1CCC[C@H]1C(=O)N[C@@H](CO)C(=O)N[C@@H](CO)C(=O)NCC(=O)N[C@@H](C)C(=O)N1CCC[C@H]1C(=O)N1CCC[C@H]1C(=O)N1CCC[C@H]1C(=O)N[C@@H](CO)C(=O)O [Compound A4] | 15.0 ± 0.7 | > 10000 | > 10000 | >81 | 12.6 | 0.00158 | 11.8 | > 200 |  |  |  |  |  |  | 
CC(C)C[C@H](NC(=O)[C@H](Cc1ccc(O)cc1)NC(=O)[C@H](CCCCN)NC(=O)[C@H](CO)NC(=O)[C@H](Cc1ccc(O)cc1)NC(=O)[C@H](CC(=O)O)NC(=O)[C@H](CO)NC(=O)[C@@H](NC(=O)[C@H](Cc1ccccc1)NC(=O)[C@@H](NC(=O)CNC(=O)[C@H](Cc1c[nH]cn1)NC(=O)[C@H](CO)NC(=O)[C@@H](N)Cc1ccc(O)cc1)[C@@H](C)O)[C@@H](C)O)C(=O)N[C@@H](CC(=O)O)C(=O)N[C@@H](CO)C(=O)N[C@@H](C)C(=O)N[C@@H](CCCNC(=N)N)C(=O)N[C@@H](C)C(=O)N[C@@H](CCC(N)=O)C(=O)N[C@@H](CCC(=O)O)C(=O)N[C@@H](Cc1ccccc1)C(=O)N[C@H](C(=O)N[C@@H](CCCCN)C(=O)N[C@@H](Cc1c[nH]c2ccccc12)C(=O)N[C@@H](CC(C)C)C(=O)N[C@@H](CCC(=O)O)C(=O)N[C@@H](CC(=O)O)C(=O)N[C@@H](CCC(=O)O)C(=O)N1CCC[C@H]1C(=O)N[C@@H](CO)C(=O)N[C@@H](CO)C(=O)NCC(=O)N[C@@H](C)C(=O)N1CCC[C@H]1C(=O)N1CCC[C@H]1C(=O)N1CCC[C@H]1C(=O)N[C@@H](CO)C(N)=O)C(C)C [Compound A5] (H-YSHGTFTSDYSKYLDSARAQEFVKWLEDEPSSGAPPPS-NH2; N-terminus assumed) | 22.6 ± 0.6 | 1580 | 1580 |  |  |  | 11.8 |  | 11.7 | >94 | 0.00158 | > 200 |  |  | 
CC(C)C[C@H](NC(=O)[C@H](Cc1ccc(O)cc1)NC(=O)[C@H](CCCCN)NC(=O)[C@H](CO)NC(=O)[C@H](Cc1ccc(O)cc1)NC(=O)[C@H](CC(=O)O)NC(=O)[C@H](CO)NC(=O)[C@@H](NC(=O)[C@H](Cc1ccccc1)NC(=O)[C@@H](NC(=O)CNC(=O)[C@H](CCC(N)=O)NC(=O)[C@H](CO)NC(=O)[C@@H](N)Cc1c[nH]c2ccccc12)[C@@H](C)O)[C@@H](C)O)C(=O)N[C@@H](CC(=O)O)C(=O)NC(C)(C)C(=O)N[C@@H](CCCCN)C(=O)N[C@@H](CCCNC(=N)N)C(=O)N[C@@H](C)C(=O)N[C@@H](CCC(N)=O)C(=O)N[C@@H](CCC(=O)O)C(=O)N[C@@H](Cc1ccccc1)C(=O)N[C@H](C(=O)NC(C)(C)C(=O)N[C@@H](Cc1c[nH]c2ccccc12)C(=O)N[C@@H](CC(C)C)C(=O)N[C@@H](CCC(=O)O)C(=O)N[C@@H](CC(=O)O)C(=O)N[C@@H](CCC(=O)O)C(=O)N1CCC[C@H]1C(=O)N[C@@H](CO)C(=O)N[C@@H](CO)C(=O)NCC(=O)N[C@@H](C)C(=O)N1CCC[C@H]1C(=O)N1CCC[C@H]1C(=O)N1CCC[C@H]1C(=O)N[C@@H](CO)C(=O)O)C(C)C [Compound A6] (H-WSQGTFTSDYSKYLD[Aib]KRAQEFV[Aib]WLEDEPSSGAPPPS-OH; N-terminus assumed) | 9.2 ± 0.2 | 5010 | 5010 |  |  |  | 11.7 |  | 12.4 | >80 | 0.002 | > 200 |  |  | 
CC(C)C[C@H](NC(=O)[C@H](Cc1ccc(O)cc1)NC(=O)[C@H](CCCCN)NC(=O)[C@H](CO)NC(=O)[C@H](Cc1ccc(O)cc1)NC(=O)[C@H](CC(=O)O)NC(=O)[C@H](CO)NC(=O)[C@@H](NC(=O)[C@H](Cc1ccccc1)NC(=O)[C@@H](NC(=O)CNC(=O)[C@H](Cc1c[nH]cn1)NC(=O)[C@H](CO)NC(=O)[C@@H](N)Cc1ccc(O)cc1)[C@@H](C)O)[C@@H](C)O)C(=O)N[C@@H](CC(=O)O)C(=O)NC(C)(C)C(=O)N[C@@H](CCCCN)C(=O)N[C@@H](CCCNC(=N)N)C(=O)N[C@@H](C)C(=O)N[C@@H](CCC(N)=O)C(=O)N[C@@H](CCC(=O)O)C(=O)N[C@@H](Cc1ccccc1)C(=O)N[C@H](C(=O)NC(C)(C)C(=O)N[C@@H](Cc1c[nH]c2ccccc12)C(=O)N[C@@H](CC(C)C)C(=O)N[C@@H](CCC(=O)O)C(=O)N[C@@H](CC(=O)O)C(=O)N[C@@H](CCC(=O)O)C(=O)N1CCC[C@H]1C(=O)N[C@@H](CO)C(=O)N[C@@H](CO)C(=O)NCC(=O)N[C@@H](C)C(=O)N1CCC[C@H]1C(=O)N1CCC[C@H]1C(=O)N1CCC[C@H]1C(=O)N[C@@H](CO)C(=O)O)C(C)C [Compound A99] |  | > 1 |  |  |  |  |  |  | 23 | >64 |  | > 200 | > 1 | 22.3 ± 1.9 | 
CC(C)C[C@H](NC(=O)[C@H](Cc1c[nH]c2ccccc12)NC(=O)[C@H](CCCCN)NC(=O)[C@@H](NC(=O)[C@H](Cc1ccccc1)NC(=O)[C@H](CCC(=O)O)NC(=O)[C@H](CCC(N)=O)NC(=O)[C@H](C)NC(=O)[C@H](CCCNC(=N)N)NC(=O)[C@H](CCCCN)NC(=O)C(C)(C)NC(=O)[C@H](CC(=O)O)NC(=O)[C@H](CC(C)C)NC(=O)[C@H](Cc1ccc(O)cc1)NC(=O)[C@H](CCCCN)NC(=O)[C@H](CO)NC(=O)[C@H](Cc1c[nH]cn1)NC(=O)[C@H](CC(=O)O)NC(=O)[C@H](CO)NC(=O)[C@@H](NC(=O)[C@H](Cc1ccccc1)NC(=O)[C@@H](NC(=O)CNC(=O)[C@H](Cc1c[nH]cn1)NC(=O)CNC(=O)[C@@H](N)Cc1ccc(O)cc1)[C@@H](C)O)[C@@H](C)O)C(C)C)C(=O)N[C@@H](CCC(=O)O)C(=O)N[C@@H](CC(=O)O)C(=O)N[C@@H](CCC(=O)O)C(=O)O [Compound A101] (H-YGHGTFTSDHSKYLD[Aib]KRAQEFVKWLEDE-OH; N-terminus assumed) |  | > 1 |  |  |  |  |  |  |  | >50 |  | > 200 | > 1 | 88.3 ± 9.0 | 0.00501
CC(C)C[C@H](NC(=O)[C@H](Cc1c[nH]c2ccccc12)NC(=O)[C@H](CCCCN)NC(=O)[C@@H](NC(=O)[C@H](Cc1ccccc1)NC(=O)[C@H](CCC(=O)O)NC(=O)[C@H](CCC(N)=O)NC(=O)[C@H](C)NC(=O)[C@H](CCCNC(=N)N)NC(=O)[C@H](CCCCN)NC(=O)C(C)(C)NC(=O)[C@H](CC(=O)O)NC(=O)[C@H](CC(C)C)NC(=O)[C@H](Cc1c[nH]c2ccccc12)NC(=O)[C@H](CCCCN)NC(=O)[C@H](CO)NC(=O)[C@H](Cc1ccc(O)cc1)NC(=O)[C@H](CC(=O)O)NC(=O)[C@H](CO)NC(=O)[C@@H](NC(=O)[C@H](Cc1ccccc1)NC(=O)[C@@H](NC(=O)CNC(=O)[C@H](Cc1c[nH]cn1)NC(=O)[C@H](CO)NC(=O)[C@@H](N)Cc1ccc(O)cc1)[C@@H](C)O)[C@@H](C)O)C(C)C)C(=O)N[C@@H](CCC(=O)O)C(=O)N[C@@H](CC(=O)O)C(=O)N[C@@H](CCC(=O)O)C(=O)O [Compound A102] (H-YSHGTFTSDYSKWLD[Aib]KRAQEFVKWLEDE-OH; N-terminus assumed) |  | > 1 |  |  |  |  |  |  |  | >51 |  | > 200 | > 1 | 97.2 ± 6.3 | 
